From the Kinase Knowledgebase extract (Sharma et al. 2016) come the findings set out here.

Each structure is given as a SMILES string.

Sequence of PIK3CD (Human) (O00329 whole entry, looked up): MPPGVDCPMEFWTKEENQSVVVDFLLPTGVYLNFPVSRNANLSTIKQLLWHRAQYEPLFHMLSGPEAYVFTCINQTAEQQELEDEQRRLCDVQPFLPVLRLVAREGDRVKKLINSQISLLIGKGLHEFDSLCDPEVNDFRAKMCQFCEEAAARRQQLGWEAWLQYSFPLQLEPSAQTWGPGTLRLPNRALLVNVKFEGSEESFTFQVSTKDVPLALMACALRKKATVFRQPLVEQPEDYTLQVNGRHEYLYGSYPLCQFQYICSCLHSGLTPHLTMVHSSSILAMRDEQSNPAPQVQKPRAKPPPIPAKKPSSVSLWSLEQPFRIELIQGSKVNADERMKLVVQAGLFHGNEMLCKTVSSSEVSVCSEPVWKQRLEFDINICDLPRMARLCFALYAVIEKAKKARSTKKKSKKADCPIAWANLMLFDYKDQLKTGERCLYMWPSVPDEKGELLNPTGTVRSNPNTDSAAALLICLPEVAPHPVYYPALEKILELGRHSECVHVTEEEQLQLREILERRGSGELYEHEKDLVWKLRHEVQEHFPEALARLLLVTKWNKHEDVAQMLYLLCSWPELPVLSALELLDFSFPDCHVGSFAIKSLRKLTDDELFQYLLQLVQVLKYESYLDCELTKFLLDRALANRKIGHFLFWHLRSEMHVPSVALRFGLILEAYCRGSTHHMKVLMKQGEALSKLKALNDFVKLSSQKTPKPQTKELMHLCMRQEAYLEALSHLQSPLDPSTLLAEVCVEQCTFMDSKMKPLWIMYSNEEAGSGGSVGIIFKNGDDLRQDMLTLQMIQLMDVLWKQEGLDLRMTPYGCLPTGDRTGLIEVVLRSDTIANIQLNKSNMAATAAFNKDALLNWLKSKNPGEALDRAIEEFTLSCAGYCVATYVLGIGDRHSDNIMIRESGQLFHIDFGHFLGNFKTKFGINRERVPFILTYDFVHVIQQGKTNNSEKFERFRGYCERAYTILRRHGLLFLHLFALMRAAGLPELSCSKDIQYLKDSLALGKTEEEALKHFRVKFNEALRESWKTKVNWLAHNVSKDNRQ

In the first experiment the target is PIK3CA (human) (UniProt P42336). The experiment in a line: Enzyme Assay.
Sequence of PIK3CA (human) (P42336 whole entry, looked up): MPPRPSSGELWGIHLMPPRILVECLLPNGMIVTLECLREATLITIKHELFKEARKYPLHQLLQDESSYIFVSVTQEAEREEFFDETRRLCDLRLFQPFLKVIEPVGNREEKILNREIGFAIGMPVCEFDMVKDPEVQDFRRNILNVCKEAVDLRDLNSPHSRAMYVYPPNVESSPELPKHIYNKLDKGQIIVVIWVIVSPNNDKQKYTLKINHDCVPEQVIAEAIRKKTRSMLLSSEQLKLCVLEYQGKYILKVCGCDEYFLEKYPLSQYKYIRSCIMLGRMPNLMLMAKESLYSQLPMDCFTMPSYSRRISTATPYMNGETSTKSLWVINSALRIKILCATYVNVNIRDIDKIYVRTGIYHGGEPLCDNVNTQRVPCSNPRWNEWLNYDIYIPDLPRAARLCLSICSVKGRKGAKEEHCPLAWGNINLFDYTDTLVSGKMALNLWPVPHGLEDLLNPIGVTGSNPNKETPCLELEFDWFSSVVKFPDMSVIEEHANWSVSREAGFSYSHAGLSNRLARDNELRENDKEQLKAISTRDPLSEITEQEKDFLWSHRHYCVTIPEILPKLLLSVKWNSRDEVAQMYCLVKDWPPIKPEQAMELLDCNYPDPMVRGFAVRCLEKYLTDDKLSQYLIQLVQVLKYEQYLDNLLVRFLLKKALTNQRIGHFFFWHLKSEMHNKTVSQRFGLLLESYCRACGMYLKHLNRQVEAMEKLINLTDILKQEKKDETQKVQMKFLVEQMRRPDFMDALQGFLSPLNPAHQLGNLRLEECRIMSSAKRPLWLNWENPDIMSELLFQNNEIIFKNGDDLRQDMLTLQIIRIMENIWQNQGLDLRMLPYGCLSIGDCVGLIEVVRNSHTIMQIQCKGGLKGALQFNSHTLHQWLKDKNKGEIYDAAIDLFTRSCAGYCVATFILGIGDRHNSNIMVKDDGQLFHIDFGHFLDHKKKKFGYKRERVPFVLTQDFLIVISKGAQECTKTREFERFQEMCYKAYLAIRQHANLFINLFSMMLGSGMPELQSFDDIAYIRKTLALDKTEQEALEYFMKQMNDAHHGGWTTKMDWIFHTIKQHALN
`CCC(NC(=O)C(CC(=O)O)NC(=O)CNC(=O)C(CCCN=C(N)N)NC(=O)CCC(=O)O[N+]1(c2cc(=O)c3cccc(-c4ccccc4)c3o2)CCOCC1)C(=O)[O-]` (stereo not given) displayed an IC50 of 356 nM.
Compound `COc1ccc(-c2ccc3c(N4CCOC[C@@H]4C)nc(N4CCOC[C@@H]4C)nc3n2)cc1CO` registered an IC50 of 3590 nM.

For the next experiment, the target named is PIK3CB (Human) (UniProt P42338). Put plainly: Enzyme Assay.
Sequence of PIK3CB (Human) (P42338 whole entry, looked up): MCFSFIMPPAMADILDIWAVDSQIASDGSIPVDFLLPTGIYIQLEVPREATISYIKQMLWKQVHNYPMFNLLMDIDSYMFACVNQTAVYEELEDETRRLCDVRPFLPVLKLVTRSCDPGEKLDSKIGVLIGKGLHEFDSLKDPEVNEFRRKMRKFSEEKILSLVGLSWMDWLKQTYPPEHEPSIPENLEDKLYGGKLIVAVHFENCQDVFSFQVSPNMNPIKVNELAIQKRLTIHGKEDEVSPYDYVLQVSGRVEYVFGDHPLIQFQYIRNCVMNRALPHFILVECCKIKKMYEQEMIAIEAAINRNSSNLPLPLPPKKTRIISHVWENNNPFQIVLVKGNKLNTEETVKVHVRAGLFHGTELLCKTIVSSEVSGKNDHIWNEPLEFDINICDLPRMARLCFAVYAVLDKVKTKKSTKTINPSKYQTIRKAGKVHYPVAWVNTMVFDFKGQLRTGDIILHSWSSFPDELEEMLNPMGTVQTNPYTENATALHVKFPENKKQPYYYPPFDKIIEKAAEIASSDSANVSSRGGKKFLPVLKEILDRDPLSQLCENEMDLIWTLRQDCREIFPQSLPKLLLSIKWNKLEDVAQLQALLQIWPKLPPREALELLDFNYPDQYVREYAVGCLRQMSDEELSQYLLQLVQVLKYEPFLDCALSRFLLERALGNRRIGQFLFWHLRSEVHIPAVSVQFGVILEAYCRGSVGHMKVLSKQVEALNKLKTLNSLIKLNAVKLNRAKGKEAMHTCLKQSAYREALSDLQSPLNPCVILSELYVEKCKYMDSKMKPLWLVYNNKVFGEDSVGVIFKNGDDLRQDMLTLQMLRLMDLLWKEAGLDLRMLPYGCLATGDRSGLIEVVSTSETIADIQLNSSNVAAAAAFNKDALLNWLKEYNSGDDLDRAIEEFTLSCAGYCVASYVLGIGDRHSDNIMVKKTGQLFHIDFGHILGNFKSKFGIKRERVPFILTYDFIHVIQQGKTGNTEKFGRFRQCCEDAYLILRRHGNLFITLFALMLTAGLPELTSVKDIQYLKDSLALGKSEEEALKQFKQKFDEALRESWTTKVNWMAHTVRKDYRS
`OCCN1CCN(Cc2cc3nc(-c4cccc(O)c4)nc(N4CCOCC4)c3s2)CC1` showed an IC50 of 63 nM. This counts as double-digit nanomolar.
`CN1CCN(Cc2cc3nc(-c4cccc(O)c4)nc(N4CCOCC4)c3s2)CC1` gave an IC50 of 35 nM. This IC50 is about 1.8-fold lower than that of the compound before.
For the compound `CCC(NC(=O)C(CC(=O)O)NC(=O)CNC(=O)C(CCCN=C(N)N)NC(=O)CCC(=O)O[N+]1(c2cc(=O)c3cccc(-c4ccccc4)c3o2)CCOCC1)C(=O)[O-]` (stereo not given), the IC50 is 736 nM.
Consider `COc1ccc(-c2ccc3c(N4CCOC[C@@H]4C)nc(N4CCOC[C@@H]4C)nc3n2)cc1CO`, for which the IC50 came out at 18900 nM. This IC50 is about 26-fold higher than that of the compound before.
On the same count and under the same terms, then `CNC(=O)Nc1ccc(-c2nc(N3CC4CCC(C3)O4)c3cnn(C4CCC5(CC4)OCCO5)c3n2)cc1`, with over 10000 nM.

Another experiment concerns the target PIK3CD (Human) (UniProt O00329). The experiment in a line: Enzyme Assay.
As for `OCCN1CCN(Cc2cc3nc(-c4cccc(O)c4)nc(N4CCOCC4)c3s2)CC1`, the IC50 is 8 nM.
`CN1CCN(Cc2cc3nc(-c4cccc(O)c4)nc(N4CCOCC4)c3s2)CC1` returned an IC50 of 4 nM. Against the preceding compound, the IC50 is about 2-fold lower.
The same measure, in the same setting: for `CCC(NC(=O)C(CC(=O)O)NC(=O)CNC(=O)C(CCCN=C(N)N)NC(=O)CCC(=O)O[N+]1(c2cc(=O)c3cccc(-c4ccccc4)c3o2)CCOCC1)C(=O)[O-]` (stereo not given) the value was 3220 nM.
Same read-out and setting: for `COc1ccc(-c2ccc3c(N4CCOC[C@@H]4C)nc(N4CCOC[C@@H]4C)nc3n2)cc1CO` the value was 3200 nM.

The target of another experiment is PIK3CG (human) (UniProt P48736). The experiment in a line: Enzyme Assay.
Sequence of PIK3CG (human) (P48736 whole entry, looked up): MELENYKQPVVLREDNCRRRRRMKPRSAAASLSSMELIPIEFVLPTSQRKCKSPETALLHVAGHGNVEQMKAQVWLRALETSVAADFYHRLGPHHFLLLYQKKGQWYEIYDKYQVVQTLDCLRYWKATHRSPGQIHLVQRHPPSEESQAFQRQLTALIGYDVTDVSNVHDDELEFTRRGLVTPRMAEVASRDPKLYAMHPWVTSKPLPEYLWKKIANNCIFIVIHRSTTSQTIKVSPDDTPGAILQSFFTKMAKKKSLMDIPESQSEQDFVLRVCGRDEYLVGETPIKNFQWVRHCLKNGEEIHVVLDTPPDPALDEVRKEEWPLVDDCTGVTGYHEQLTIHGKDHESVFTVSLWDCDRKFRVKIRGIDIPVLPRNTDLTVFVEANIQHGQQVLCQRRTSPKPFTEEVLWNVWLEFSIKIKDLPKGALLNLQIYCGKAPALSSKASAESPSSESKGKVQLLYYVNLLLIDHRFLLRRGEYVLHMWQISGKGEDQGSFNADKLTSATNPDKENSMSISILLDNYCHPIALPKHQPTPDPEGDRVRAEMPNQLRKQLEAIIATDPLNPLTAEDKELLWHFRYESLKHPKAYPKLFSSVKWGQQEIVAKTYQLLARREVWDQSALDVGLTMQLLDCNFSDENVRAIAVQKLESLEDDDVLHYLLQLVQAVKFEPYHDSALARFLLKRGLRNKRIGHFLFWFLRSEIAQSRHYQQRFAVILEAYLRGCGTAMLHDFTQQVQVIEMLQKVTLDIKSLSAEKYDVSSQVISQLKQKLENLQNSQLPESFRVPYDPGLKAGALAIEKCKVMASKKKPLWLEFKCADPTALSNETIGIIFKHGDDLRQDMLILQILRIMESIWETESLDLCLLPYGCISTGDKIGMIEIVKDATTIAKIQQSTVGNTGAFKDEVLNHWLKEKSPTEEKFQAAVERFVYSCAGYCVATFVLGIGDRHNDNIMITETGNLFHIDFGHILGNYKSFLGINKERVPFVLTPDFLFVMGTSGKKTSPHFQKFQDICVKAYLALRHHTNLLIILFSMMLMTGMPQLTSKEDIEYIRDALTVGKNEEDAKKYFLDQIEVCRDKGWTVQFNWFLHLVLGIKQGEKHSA
For the compound `OCCN1CCN(Cc2cc3nc(-c4cccc(O)c4)nc(N4CCOCC4)c3s2)CC1`, the IC50 was found to be 672 nM.
On the same count and under the same terms, then `CN1CCN(Cc2cc3nc(-c4cccc(O)c4)nc(N4CCOCC4)c3s2)CC1`, with 331 nM; and `COc1ncc(-c2ccc3nccc(-c4ccnnc4)c3c2)cc1NS(=O)(=O)c1ccc(F)cc1F`, with 0.06 nM; and `COC(=O)Nc1ccc(-c2nc(N3CCOCC3)c3cnn(C4CCN(Cc5cccnc5)CC4)c3n2)cc1`, with 3110 nM.
As for `CCC(NC(=O)C(CC(=O)O)NC(=O)CNC(=O)C(CCCN=C(N)N)NC(=O)CCC(=O)O[N+]1(c2cc(=O)c3cccc(-c4ccccc4)c3o2)CCOCC1)C(=O)[O-]` (stereo not given), the half-maximal inhibitory concentration (IC50) came to 1770 nM.
In turn, `c1cncc(CN2CCC(n3ncc4c(N5CCOCC5)nc(-c5ccc6[nH]ccc6c5)nc43)CC2)c1` came in with an IC50 of 8450 nM.
The same measure, in the same setting: then `COC(=O)Nc1ccc(-c2nc(N3CCOCC3)c3cnn(C4CCN(C(=O)OC)CC4)c3n2)cc1`, with 7370 nM; and `COc1ccc(-c2ccc3c(N4CCOC[C@@H]4C)nc(N4CCOC[C@@H]4C)nc3n2)cc1CO`, with over 14800 nM.
The same measure, in the same setting: then `CNC(=O)Nc1ccc(-c2nc(N3CC4CCC(C3)O4)c3cnn(C4CCC5(CC4)OCCO5)c3n2)cc1`, with over 10000 nM.
